Reference: patent publication US20180236089A1, “RADIATION EMITTING PEPTIDE NUCLEIC ACID CONJUGATES AND USES THEREOF FOR DIAGNOSIS, IMAGING, AND TREATMENT OF DISEASES, CONDITIONS AND DISORDERS” (Yissum Research Development Company of the Hebrew …, priority 2015, published 2018)
Values joined by “and” are separate entries in the source; they are usually repeats but may differ in a detail not shown here. Equal values may be shown once. Where no end group is shown, it is not given here. [ ]: non-standard residue; d: D form. BisQ = dye (BisQ) placed in the PNA in place of a base

How the values were obtained:
[1] = UV-Vis absorption of BisQ, TO and PNA FIT probes, alone or hybridized to DNA; format: physicochemical; conditions: for λmaxabs: UV-Vis spectrum, maximal absorption
[2] = tested on: Panc-1 cells; assay: Hybridization and imaging in living cells (confocal microscopy), Panc-1; format: cell-based, human; conditions: Panc-1 expressing mutated KRAS, 0.5 μM, 3 hours
Procedure: (§1) Three cell lines were used: Panc-1, BxPC-3 (human pancreatic carcinoma, epithelial-like), and HT-29 (human colon adenocarcinoma grade II). Cell lines were purchased from the American Type Culture Collection (ATCC, Manassas, Va., USA). Panc-1 and HT-29 expressing mutated and wild type KRAS, respectively, were cultured (37° C., 5% CO2), in DMEM medium and supplemented with 10% fetal calf serum, 2 mM L-glutamine, and 0.1 mg/mL Streptomycin (Beit Haemek Biological Industries, Israel). BxPC-3 cells expressing wild type KRAS were cultured in RPMI 1640 medium supplemented with 10% fetal calf serum, 2 mM L-glutamine, and 0.1 mg/mL Streptomycin.
(§2) Twenty four hours prior to PNA addition, Panc-1, HT-29, and BxPC-3 were plated separately on chamber slides (Ibidi GmbH, Munich, Germany) until reaching 70-80% confluence.
(§3) Before adding the PNAs, the medium was replaced and the cells were incubated (37° C., humidified atmosphere containing 5% CO2) with 0.5 μM of PNA1 and PNA2 in complete medium. Cells were washed with PBS (×3) prior to cell imaging and the intracellular fluorescence was measured after 3 hours by confocal microscopy. Design and synthesis of a new surrogate base (BisQ) with the unique feature of far-red emission. BisQ was introduced into PNAs that targets the mutated kRAS oncogene.

[3] = tested on: HT-29 cells; assay: Hybridization and imaging in living cells (confocal microscopy), HT-29; format: cell-based, human; conditions: HT-29 expressing wild type KRAS, 0.5 μM, 3 hours
Procedure: as §1, §2, §3

[4] = tested on: BxPC-3 cells; assay: Hybridization and imaging in living cells (confocal microscopy), BxPC-3; format: cell-based, human; conditions: BxPC-3 expressing wild type KRAS, 0.5 μM, 3 hours
Procedure: as §1, §2, §3

Compound	εmax [1]	λmaxabs [1]	intracellular red fluorescence [2]	intracellular red fluorescence [3]	intracellular red fluorescence [4]
CN1C(=Cc2cc[n+](C)c3ccccc23)Sc2ccccc21 [TO, thiazole orange, reference compound]	43,000 M^−1cm^−1	505 nm	–	–	–
(D-Lys)4-CCTCGACT[BisQ]CCGCATCC-NH2 (chain 1 [dK][dK][dK][dK]CCTCGACT-BisQ; numbers in words are those of the source; cysteine pairing not given here; also: PNA (peptide nucleic acid), BisQ joins chain 1 and chain 2 within one strand) [PNA2, BisQ paired with T; PNA FIT probe targeting mutated KRAS]	82,219 M^−1cm^−1	593 nm	red emission solely in Panc-1 cells	red emission solely in Panc-1 cells	red emission solely in Panc-1 cells
(D-Lys)4-CCTCGA[BisQ]TACCGCATCC-NH2 (chemistry not fully specified) [PNA1, BisQ paired with G; PNA FIT probe targeting mutated KRAS]	83,000 M^−1cm^−1	591 nm and 588 nm	–	–	–
Fmoc-Aeg(Dy)-OH [BisQ]	41,370 M^−1cm^−1	591 nm	–	–	–
